Measured values as given in patent US8889702B2, “Derivatives of azaspiranyl-alkylcarbamates of 5-member heterocyclic compounds, preparation thereof and therapeutic use thereof” (Sanofi, priority 2009, dated 2014).

Key:
[1] = target: T1, enzyme FAAH (Fatty Acid Amide Hydrolase) (Mus musculus, UniProt O08914); test: radioenzymatic test: hydrolysis of anandamide [ethanolamine 1-3H] with FAAH, mouse brain membrane homogenates; format: biochemical; details: mouse brain membrane homogenate; preincubation 20 minutes at 25° C.; anandamide 10 μM; read-out: IC50 (concentration that inhibits 50% of the control enzymatic activity of FAAH)
T1 construct: The membrane homogenates are prepared extemporaneously by homogenizing the tissues; from tissue; host or cells: mouse brain (minus the cerebellum), membrane homogenate
T1 sequence (O08914 1-579): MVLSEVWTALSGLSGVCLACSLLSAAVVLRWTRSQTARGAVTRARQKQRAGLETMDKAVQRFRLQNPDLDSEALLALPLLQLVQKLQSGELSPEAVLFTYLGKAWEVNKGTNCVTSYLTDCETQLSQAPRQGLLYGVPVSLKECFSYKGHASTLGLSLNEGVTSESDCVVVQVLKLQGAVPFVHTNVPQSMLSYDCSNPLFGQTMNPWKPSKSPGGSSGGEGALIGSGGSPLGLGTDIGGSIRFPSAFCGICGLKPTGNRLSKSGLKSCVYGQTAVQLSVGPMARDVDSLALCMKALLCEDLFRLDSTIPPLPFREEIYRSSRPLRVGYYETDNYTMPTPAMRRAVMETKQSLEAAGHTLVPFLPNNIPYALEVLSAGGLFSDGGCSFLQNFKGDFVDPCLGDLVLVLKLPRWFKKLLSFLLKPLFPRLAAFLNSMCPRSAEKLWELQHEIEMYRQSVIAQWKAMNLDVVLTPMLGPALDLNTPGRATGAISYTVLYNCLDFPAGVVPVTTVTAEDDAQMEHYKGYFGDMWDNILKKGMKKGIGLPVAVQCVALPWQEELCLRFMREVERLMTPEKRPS
Protocol: The compounds of the invention underwent pharmacological tests to determine their inhibitory effect on the enzyme FAAH (Fatty Acid Amide Hydrolase).
Thus, mouse brains (minus the cerebellum) are removed and stored at −80° C. The membrane homogenates are prepared extemporaneously by homogenizing the tissues using a Precellys® machine in reaction buffer (10 mM Tris-HCl, pH=8, 150 mM NaCl and 1 mM ethylenediaminetetraacetic acid (EDTA)). The enzymatic reaction is performed in 96-well Multiscreen filtration plates in a final volume of 70 μL. Reaction buffer supplemented with fatty acid-free bovine serum albumin (BSA, 1 mg/ml) is used for the enzymatic reaction and the dilution of the compounds and of the anandamide [ethanolamine 1-^3H]. The reaction buffer containing BSA (43 μL/well), the diluted test compounds at different concentrations (7 μL/well containing 1% DMSO) and the membrane preparation (10 μL/well, i.e. 200 μg of tissue per test) are successively added to the wells. After preincubation for 20 minutes of the compounds with the enzyme at 25° C., the reaction is started by adding anandamide [ethanolamine 1-^3H]. (Specific activity of 15-20 Ci/mmol) diluted with cold anandamide (10 μL/well, final concentration of 10 μM, 0.01 μCi per test). After incubation for 20 minutes at 25° C., the enzymatic reaction is stopped by adding a […] of active charcoal prepared in 1.5M NaCl buffer and 0.5 M HCl (50 μL/well). The mixture is stirred for 10 minutes and the aqueous phase containing the ethanolamine [1-^3H] is then recovered by filtration under vacuum and counted by liquid scintillation.

[2] = system: male OF1 mice; test: test of analgesia: abdominal stretching induced with PBQ (phenylbenzoquinone); format: in vivo, mouse; details: 30 mg/kg p.o. at 120 minutes
Protocol: The in vivo activity of the compounds of the invention was evaluated in a test of analgesia.
Thus, the intraperitoneal (i.p.) administration of PBQ (phenylbenzoquinone, 2 mg/kg in 0.9% sodium chloride solution containing 5% ethanol) to male OF1 mice weighing 25 to 30 g causes abdominal stretching, on average 30 torsions or contractions within a period of 5 to 15 minutes after injection. The test compounds are administered orally (p.o.) or intraperitoneally (i.p.) suspended in Tween 80 at 0.5%, 60 minutes or 120 minutes before the administration of PBQ. Under these conditions, the compounds of the invention that are the most powerful reduce by 35% to 80% the number of stretches induced with PBQ, over a dose range of between 1 and 30 mg/kg.
For example, compound 5 of Table 1 reduces by 50% the number of stretches induced with PBQ, at a dose of 30 mg/kg p.o. at 120 minutes.

SMILES | IC50 [1] [nM] | melting point [°C] | reduction of the number of stretches induced with PBQ [2] [%]
CNC(=O)c1cc(COC(=O)NCC2CC3(CCN(c4ccc(-c5ccc(F)cc5)cn4)C3)C2)on1 (single isomer, unassigned) [Compound 12, 3-(Methylcarbamoyl)isoxazol-5-ylmethyl 6-[5-(4-fluorophenyl)pyridin-2-yl]-6-azaspiro[3.4]oct-2-ylmethylcarbamate] | 0.85 | 171 to 173 | –
NC(=O)c1cc(COC(=O)NC2CC3(CCN(c4ccc(Br)cn4)CC3)C2)on1 [Compound 4, 3-carbamoylisoxazol-5-ylmethyl[7-(5-bromopyridin-2-yl)-7-azaspiro[3.5]non-2-yl]carbamate] | 8.2 | – | –
NC(=O)c1cc(COC(=O)NC2CC3(CCN(c4ccc(-c5ccc(F)cc5)cn4)CC3)C2)on1 [Compound 5, 3-Carbamoylisoxazol-5-ylmethyl{7-[5-(4-fluorophenyl)pyridin-2-yl]-7-azaspiro[3.5]non-2-yl}carbamate] | – | 216 to 218 | 50
NC(=O)c1cc(COC(=O)NCC2CC3(CCN(c4ccc5cc(F)ccc5n4)CC3)C2)on1 [Compound 6, 3-Carbamoylisoxazol-5-ylmethyl[7-(6-fluoroquinolin-2-yl)-7-azaspiro[3.5]non-2-yl]methylcarbamate] | 0.25 | 190 to 192 | –
CNC(=O)c1cc(COC(=O)NC2CC3(CCN(c4ccc5cc(Cl)ccc5n4)CC3)C2)on1 [Compound 19, 3-(Methylcarbamoyl)isoxazol-5-ylmethyl[7-(6-chloroquinolin-2-yl)-7-azaspiro[3.5]non-2-yl]carbamate] | 1.8 | – | –
NC(=O)c1cc(COC(=O)NC2CC3(CCN(c4cncc(-c5ccc(F)cc5)n4)CC3)C2)on1 [Compound 25, 3-carbamoylisoxazol-5-ylmethyl{7-[6-(4-fluorophenyl)pyrazin-2-yl]-7-azaspiro[3.5]non-2-yl}carbamate] | 1.7 | – | –
CC(C)Cc1ccc(N2CCC3(CC2)CC(NC(=O)OCc2cc(C(N)=O)no2)C3)nc1 [Compound 31, 3-Carbamoylisoxazol-5-ylmethyl[7-(5-isobutylpyridin-2-yl)-7-azaspiro[3,5]non-2-yl]carbamate] | 4.3 | 178 to 180 | –
NC(=O)c1cc(COC(=O)NC2CC23CCN(c2nccc(C(F)(F)F)n2)CC3)on1 (stereo not drawn) [Compound 40, 3-Carbamoylisoxazol-5-ylmethyl[6-(4-trifluoromethylpyrimidin-2-yl)-6-azaspiro[2.5]oct-1-yl]carbamate] | 0.5 | – | –

Second part, led by results:

IC50 [1] [nM] | melting point [°C] | SMILES | reduction of the number of stretches induced with PBQ [2] [%]
2.3 | – | NC(=O)c1cc(COC(=O)NC2CC3(CCN(c4ccc(-c5ccc(F)cc5)cn4)C3)C2)on1 (mixture of isomers) [Compound 10, 3-Carbamoylisoxazol-5-ylmethyl{6-[5-(4-fluorophenyl)pyridin-2-yl]-6-azaspiro[3.4]oct-2-yl}carbamate] | –
– | 180 to 182 | CNC(=O)c1cc(COC(=O)NCC2CC3(CCN(c4ccc(-c5ccc(F)cc5)cn4)C3)C2)on1 (single isomer, unassigned) [Compound 13, 3-(Methylcarbamoyl)isoxazol-5-ylmethyl 6-[5-(4-fluorophenyl)pyridin-2-yl]-6-azaspiro[3.4]oct-2-ylmethylcarbamate] | –
– | 203 to 205 | CNC(=O)c1cc(COC(=O)NC2CC3(CCN(c4ccc(-c5ccc(F)cc5)cn4)C3)C2)on1 (single isomer, unassigned) [Compound 17, 3-(Methylcarbamoyl)isoxazol-5-ylmethyl{6-[5-(4-fluorophenyl)pyridin-2-yl]-6-azaspiro[3.4]oct-2-yl}carbamate] | –
– | 194 to 196 | CNC(=O)c1cc(COC(=O)NC2CC3(CCN(c4ccc(-c5ccc(F)cc5)cn4)C3)C2)on1 (single isomer, unassigned) [Compound 18, 3-(Methylcarbamoyl)isoxazol-5-ylmethyl{6-[5-(4-fluorophenyl)pyridin-2-yl]-6-azaspiro[3.4]oct-2-yl}carbamate] | –
0.72 | 219 to 221 | CNC(=O)c1cc(COC(=O)NC2CC3(CCN(c4ccc(-c5ccc(F)cc5)cn4)CC3)C2)on1 [Compound 8, 3-(Methylcarbamoyl)isoxazol-5-ylmethyl 7-[5-(4-fluorophenyl)pyridin-2-yl]-7-azaspiro[3.5]non-2-ylcarbamate] | –
